This is an account of results in US20070219234A1, “Thienopyridine Derivatives” (priority 2004, published 2007).

The term melting point denotes the temperature of the solid-liquid transition. Take `NC(=O)c1sc2nccc(N3CCCN(c4cccc(C(F)(F)F)c4)CC3)c2c1N` [Example 86, 3-amino-4-{4-[3-(trifluoromethyl)phenyl]-1,4-diazepan-1-yl}thieno[2,3-b]pyridine-2-carboxamide]: the melting point lay within 195 to 197 °C.

For `CC(C)N1CCN(c2ccnc3sc(C(N)=O)c(N)c23)CC1` [Example 41, 3-amino-4-(4-isopropylpiperazin-1-yl)thieno[2,3-b]pyridine-2-carboxamide], the melting point was 240 to 243 °C.

Take `Cc1ccc(N2CCCN(c3ccnc4sc(C(N)=O)c(N)c34)CC2)cc1F` [Example 71, 3-amino-4-[4-(3-fluoro-4-methylphenyl)-1,4-diazepan-1-yl]thieno[2,3-b]pyridine-2-carboxamide]: the melting point lay within 79 to 83 °C.

Molecule `NC(=O)c1sc2nccc(N3CCCN(c4cccc(Cl)c4)CC3)c2c1N` [Example 78, 3-amino-4-[4-(3-chlorophenyl)-1,4-diazepan-1-yl]thieno[2,3-b]pyridine-2-carboxamide] displayed a melting point of 213 to 215 °C.

`CC(C)Oc1ccnc2sc(C(N)=O)c(N)c12` [Example 111, 3-amino-4-isopropoxythieno[2,3-b]pyridine-2-carboxamide]: the melting point is 238 to 240 °C (dec.).

The molecule `NC(=O)c1sc2nccc(N3CCCN(c4cccc([N+](=O)[O-])c4)CC3)c2c1N` [Example 80, 3-amino-4-[4-(3-nitrophenyl)-1,4-diazepan-1-yl]thieno[2,3-b]pyridine-2-carboxamide] had a melting point of 180 to 185 °C.

The molecule `NC(=O)c1sc2nccc(OC3CCCCCC3)c2c1N` [Example 112, 3-amino-4-(cycloheptyloxy)thieno[2,3-b]pyridine-2-carboxamide] had a melting point of 179 to 180 °C.

`CC(C)(C)OC(=O)N1CCN(c2ccnc3sc(C(N)=O)c(N)c23)CC1` [Example 37, tert-butyl 4-[3-amino-2-(aminocarbonyl)thieno[2,3-b]pyridin-4-yl]piperazine-1-carboxylate] had a melting point of 198 to 203 °C.

Take `CCN(CC)c1ccnc2sc(C(N)=O)c(N)c12` [Example 2, 3-amino-4-(diethylamino)thieno[2,3-b]pyridine-2-carboxamide]: the melting point is 127 to 129 °C.

As to `NC(=O)c1sc2nccc(N3CCCN(c4c(F)c(F)nc(F)c4F)CC3)c2c1N` [Example 88, 3-amino-4-[4-(2,3,5,6-tetrafluoropyridin-4-yl)-1,4-diazepan-1-yl]thieno[2,3-b]pyridine-2-carboxamide], the melting point was in the range of 228 to 231 °C.

In turn, `CC(C)(C)c1ccc(N2CCCN(c3ccnc4sc(C(N)=O)c(N)c34)CC2)cc1` [Example 92, 3-amino-4-[4-(4-tert-butylphenyl)-1,4-diazepan-1-yl]thieno[2,3-b]pyridine-2-carboxamide] yielded a melting point of 231 to 232 °C.

Consider `NC(=O)c1sc2nccc(N3CCN(Cc4ccccc4)CC3)c2c1N` [Example 43, 3-amino-4-(4-benzylpiperazin-1-yl)thieno[2,3-b]pyridine-2-carboxamide], for which the melting point was in the range of 241 to 242 °C.

`NC(=O)c1sc2nccc(N3CCC[S+]([O-])CC3)c2c1N` (stereo not drawn) [Example 34, 3-amino-4-(1-oxo-1,4-thiazepan-4-yl)thieno[2,3-b]pyridine-2-carboxamide] registered a melting point of 111 to 119 °C.

As to `COc1ccnc2sc(C(N)=O)c(N)c12` [Example 107, 3-amino-4-methoxythieno[2,3-b]pyridine-2-carboxamide], the melting point is 238 to 241 °C.

In turn, `CC(C)CNc1ccnc2sc(C(N)=O)c(N)c12` [Example 5, 3-amino-4-(isobutylamino)thieno[2,3-b]pyridine-2-carboxamide] displayed a melting point of 117 to 119 °C.

The molecule `CCSc1ccnc2sc(C(N)=O)c(N)c12` [Example 114, 3-amino-4-(ethylthio)thieno[2,3-b]pyridine-2-carboxamide] yielded a melting point of 230 to 235 °C.

For the molecule `NC(=O)c1sc2nccc(N3CCCN(c4ccncc4)CC3)c2c1N` [Example 100, 3-amino-4-(4-pyridin-4-yl-1,4-diazepan-1-yl)thieno[2,3-b]pyridine-2-carboxamide], the melting point was 288 to 291 °C (dec.).

Molecule `NC(=O)c1sc2nccc(N3CCCSCC3)c2c1N` [Example 33, 3-amino-4-(1,4-thiazepan-4-yl)thieno[2,3-b]pyridine-2-carboxamide] showed a melting point of 171 to 174 °C.

The molecule `NC(=O)c1sc2nccc(N3CCC(Cc4ccccc4)CC3)c2c1N` [Example 18, 3-amino-4-(4-benzylpiperidin-1-yl)thieno[2,3-b]pyridine-2-carboxamide] yielded a melting point of 220 to 221 °C.

For the molecule `NC(=O)c1sc2nccc(N3CCCN(c4ccc(C(F)(F)F)cc4)CC3)c2c1N` [Example 63, 3-amino-4-[4-(4-trifluoromethylphenyl)-1,4-diazepan-1-yl]thieno[2,3-b]pyridine-2-carboxamide], the melting point is 204 to 208 °C.

Take `NC(=O)c1sc2nccc(N3CCCOCC3)c2c1N` [Example 30, 3-amino-4-(1,4-oxazepan-4-yl)thieno[2,3-b]pyridine-2-carboxamide]: the melting point lay within 175 to 176 °C.

For `CC(=O)N1CCCN(c2ccnc3sc(C(N)=O)c(N)c23)CC1` [Example 103, 4-(4-acetyl-1,4-diazepan-1-yl)-3-aminothieno[2,3-b]pyridine-2-carboxamide], the melting point lay within 214 to 215 °C.

In turn, `NC(=O)c1sc2nccc(SC3CCCCC3)c2c1N` [Example 115, 3-amino-4-(cyclohexylthio)thieno[2,3-b]pyridine-2-carboxamide] came in with a melting point of 195 to 197 °C.

With `NC(=O)c1sc2nccc(N3CCN(c4ccc(F)cc4)CC3)c2c1N` [Example 47, 3-amino-4-[4-(4-fluorophenyl)piperazin-1-yl]thieno[2,3-b]pyridine-2-carboxamide], the melting point was 275 °C (dec.).

In turn, `NC(=O)c1sc2nccc(N3CCCCCC3)c2c1N` [Example 25, 3-amino-4-azepan-1-ylthieno[2,3-b]pyridine-2-carboxamide] showed a melting point of 219 to 221 °C.

As for `CC1CCN(c2ccnc3sc(C(N)=O)c(N)c23)CC1` [Example 15, 3-amino-4-(4-methylpiperidin-1-yl)thieno[2,3-b]pyridine-2-carboxamide], the melting point lay in the range of 252 to 254 °C.

On to `NC(=O)c1sc2nccc(N3CC=C(c4ccccc4)CC3)c2c1N` [Example 21, 3-amino-4-(4-phenyl-3,6-dihydropyridin-1(2H)-yl)thieno[2,3-b]pyridine-2-carboxamide], for which the melting point was 235 °C (dec.).

As for `NC(=O)c1sc2nccc(OCc3ccccc3)c2c1N` [Example 110, 3-amino-4-(benzyloxy)thieno[2,3-b]pyridine-2-carboxamide], the melting point lay within 216 to 221 °C.

`CN1CCN(c2ccnc3sc(C(N)=O)c(N)c23)CC1` [Example 39, 3-amino-4-(4-methylpiperazin-1-yl)thieno[2,3-b]pyridine-2-carboxamide] gave a melting point of 260 to 263 °C.

Molecule `CCOc1ccnc2sc(C(N)=O)c(N)c12` [Example 108, 3-amino-4-ethoxythieno[2,3-b]pyridine-2-carboxamide] gave a melting point of 241 to 243 °C.
